Data taken from patent US20100319073A1, “GDE Compositions and Methods” (The Johns Hopkins University, priority 2005, published 2010).

System: clone 45.1 (GDE2)
Assay: Reverse Northern blot of ventral spinal cord explants grown with or without retinol (differential subtraction screen)
Assay type: cell-based, chick
Conditions: explants exposed to retinol, compared with GAPDH
Protocol: Ventral neural explants were dissected from brachial level HH St17 chick embryos and cultured as described previously for 18 hours (1). The screen was designed to maximize isolation of genes responsive to motor neuron-derived retinoids however genes responsive to paraxial mesoderm-derived retinoids would also have been included. RNA from 100 explants was isolated using Trizol (GIBCO-BRL). cDNAs were generated and amplified using the Marathon cDNA PCR Amplification kit (Stratagene) and the subtraction procedure carried out using the Stratagene PCR Select Suppression kit. Reverse Northern blot analysis was performed as described in the latter kit.
Spinal motor neuron generation in the chick requires the integration of three different extrinsic signals: sonic hedgehog, fibroblast growth factors, and retinoic acid (RA) (2, 3). All three signaling pathways have been implicated in initial dorsal-ventral patterning of progenitor domains in the spinal cord (FIG. 1A). However, RA signaling is also necessary for the induction of Oligodendrocyte transcription factor 2 (Olig2) in progenitors, and their subsequent differentiation into postmitotic motor neurons (FIG. 1A) (2). […]

CC1=C(/C=C/C(C)=C/C=C/C(C)=C/CO)C(C)(C)CCC1 [retinol]
increase in expression of clone 45.1: approximately 50 fold
